# According to patent US10916331B2, “Predicting drug-target interactions and uses for drug repositioning and repurposing” (GEORGETOWN UNIVERSITY, priority 2015, dated 2021):
# Experiments:
# mammalian tubulin = conditions: background statement; cited from earlier work
# GSK3B = target: T1, GSK3B (Homo sapiens, UniProt P49841); test: Kinomescan active site-directed competition binding assay; conditions: MBZ at 10 μM, lower = stronger hit, read-out: Percent Control at 10 μM
# T1 construct: purchased Discoverx (Kinomescan); host or cells: E. coli BL21-derived host (T7 phage) or HEK-293
# Experimental: (§1) Kinase assays were performed using Kinomescan, by Discoverx, CA, USA and Caliper LabChip 3000 by Caliper Life sciences, USA as described previously. The determination of MBZ thermodynamic binding affinities (Kd) to kinase targets predicted by RepurposeVS was performed by using active site-directed competition binding. Kinase-tagged T7 phage strains were grown in parallel in 24-well blocks in an E. coli host derived from the BL21 strain. E. coli bacteria were grown to log-phase and infected with T7 phage from a frozen stock (multiplicity of infection=0.4) and incubated with shaking at 32° C. until lysis (90-150 minutes). The lysates were centrifuged (6,000×g) and filtered (0.2 μm sieves) to remove cell debris. The remaining kinases were produced in HEK-293 cells and subsequently tagged with DNA for qPCR detection. […] The liganded beads were blocked with excess biotin and washed with blocking buffer (SeaBlock (Pierce), 1% BSA, 0.05% Tween 20, 1 mM DTT) to remove unbound ligand and to reduce non-specific phage binding. Binding reactions were assembled by combining kinases, control liganded affinity beads, and mebendazole in 1× binding buffer (20% SeaBlock, 0.17×PBS, 0.05% Tween 20, 6 mM DTT). Mebendazole was prepared as 40× stocks in 100% DMSO and directly diluted into the assay. All reactions were performed in polypropylene 384-well plates in a final volume of 0.04 ml. The assay plates were incubated at room temperature with shaking for 1 hour and the affinity beads were washed with wash buffer (lx PBS, 0.05% Tween 20). […] The kinase concentration in the eluates was measured by qPCR. […] The amount of kinase captured in test versus control samples were measured by using a quantitative, precise and ultra-sensitive qPCR method that detects the associated DNA label. Using (13), the primary screen binding interactions are reported as ‘% Ctrl’ (Percent kinase remaining activity), where lower numbers indicate stronger hits. In a similar manner, binding constants (Kd) for mebendazole-kinase interactions are calculated by measuring the amount of kinase captured as a function of the mebendazole concentration in a dose response manner. […] Binding constants (Kd) were calculated with a standard dose-response curve (drug dose (x-axis)−qPCR signal (y-axis)) using the Hill equation in (14) with the Hill Slope set to −1.
# JNK2 = target: T2, JNK2 (Homo sapiens, UniProt P45984); test: as above
# T2 construct: purchased Discoverx (Kinomescan); host or cells: E. coli BL21-derived host (T7 phage) or HEK-293
# T2 sequence (P45984 whole entry): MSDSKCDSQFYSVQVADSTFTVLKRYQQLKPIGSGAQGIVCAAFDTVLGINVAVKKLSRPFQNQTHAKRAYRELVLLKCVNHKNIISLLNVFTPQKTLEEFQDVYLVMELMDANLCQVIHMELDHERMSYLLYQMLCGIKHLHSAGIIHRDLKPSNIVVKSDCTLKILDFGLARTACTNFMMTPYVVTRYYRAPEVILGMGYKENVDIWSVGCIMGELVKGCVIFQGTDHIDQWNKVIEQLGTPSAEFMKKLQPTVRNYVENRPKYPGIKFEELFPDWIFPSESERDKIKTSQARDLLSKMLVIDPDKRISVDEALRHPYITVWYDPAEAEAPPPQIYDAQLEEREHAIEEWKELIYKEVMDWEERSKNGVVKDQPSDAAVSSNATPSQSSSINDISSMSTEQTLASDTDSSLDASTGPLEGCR
# Experimental: as §1
# ABL1-phosphorylated = target: T3, ABL1-phosphorylated (Homo sapiens, UniProt P00519); test: as above
# T3 construct: purchased Discoverx (Kinomescan); host or cells: E. coli BL21-derived host (T7 phage) or HEK-293
# Experimental: as §1
# [1] = target: T4, ABL1(E255K)-phosphorylated (Homo sapiens, UniProt P00519, E255K); test: as above; conditions: MBZ at 10 μM, lower = stronger hit, read-out: Percent Control at 10 μM
# T4 construct: purchased Discoverx (Kinomescan); host or cells: E. coli BL21-derived host (T7 phage) or HEK-293
# Experimental: as §1
# ABL1-nonphosphorylated = target: T5, ABL1-nonphosphorylated (Homo sapiens, UniProt P00519); test: as above; conditions: MBZ at 10 μM, lower = stronger hit, read-out: Percent Control at 10 μM
# T5 construct: purchased Discoverx (Kinomescan); host or cells: E. coli BL21-derived host (T7 phage) or HEK-293
# Experimental: as §1
# PDGFR-B = target: T6, PDGFR-B (Homo sapiens, UniProt P09619); test: as above
# T6 construct: purchased Discoverx (Kinomescan); host or cells: E. coli BL21-derived host (T7 phage) or HEK-293
# T6 sequence (P09619 33-1106): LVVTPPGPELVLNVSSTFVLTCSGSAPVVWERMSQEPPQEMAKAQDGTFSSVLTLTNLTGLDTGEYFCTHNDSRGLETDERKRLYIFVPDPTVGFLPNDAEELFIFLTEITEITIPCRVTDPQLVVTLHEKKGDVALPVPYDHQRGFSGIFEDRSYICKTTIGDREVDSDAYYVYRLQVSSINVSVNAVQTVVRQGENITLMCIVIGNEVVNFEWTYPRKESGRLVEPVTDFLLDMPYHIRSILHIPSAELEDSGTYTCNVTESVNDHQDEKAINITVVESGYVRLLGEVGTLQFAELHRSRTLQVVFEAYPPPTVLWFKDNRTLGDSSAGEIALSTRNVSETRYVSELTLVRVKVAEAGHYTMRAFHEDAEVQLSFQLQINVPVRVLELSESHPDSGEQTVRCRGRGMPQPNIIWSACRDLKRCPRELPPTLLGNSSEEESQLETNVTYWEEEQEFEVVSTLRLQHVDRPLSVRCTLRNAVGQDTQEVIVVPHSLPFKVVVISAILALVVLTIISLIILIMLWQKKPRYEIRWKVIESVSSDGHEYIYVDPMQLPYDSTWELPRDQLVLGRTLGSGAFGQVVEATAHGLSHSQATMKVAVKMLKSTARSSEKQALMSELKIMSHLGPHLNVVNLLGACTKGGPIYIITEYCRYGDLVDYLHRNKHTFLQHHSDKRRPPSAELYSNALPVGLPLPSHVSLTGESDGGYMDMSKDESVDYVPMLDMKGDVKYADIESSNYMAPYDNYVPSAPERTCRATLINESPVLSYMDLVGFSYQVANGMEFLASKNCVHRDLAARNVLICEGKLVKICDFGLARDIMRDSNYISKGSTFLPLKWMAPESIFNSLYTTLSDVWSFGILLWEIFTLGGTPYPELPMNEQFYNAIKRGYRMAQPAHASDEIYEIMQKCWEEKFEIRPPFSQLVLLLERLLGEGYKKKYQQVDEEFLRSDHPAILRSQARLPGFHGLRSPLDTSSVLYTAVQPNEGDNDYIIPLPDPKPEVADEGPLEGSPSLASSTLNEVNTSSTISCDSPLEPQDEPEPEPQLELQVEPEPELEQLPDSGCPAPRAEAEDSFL
# Experimental: as §1
# MET = target: T7, MET (Homo sapiens, UniProt P08581); test: as above; conditions: MBZ at 10 μM, lower = stronger hit, read-out: Percent Control at 10 μM
# T7 construct: purchased Discoverx (Kinomescan); host or cells: E. coli BL21-derived host (T7 phage) or HEK-293
# Experimental: as §1
# DYRK1B = target: T8, DYRK1B (Homo sapiens, UniProt Q9Y463); test: as above
# T8 construct: purchased Discoverx (Kinomescan); host or cells: E. coli BL21-derived host (T7 phage) or HEK-293
# T8 sequence (Q9Y463 whole entry): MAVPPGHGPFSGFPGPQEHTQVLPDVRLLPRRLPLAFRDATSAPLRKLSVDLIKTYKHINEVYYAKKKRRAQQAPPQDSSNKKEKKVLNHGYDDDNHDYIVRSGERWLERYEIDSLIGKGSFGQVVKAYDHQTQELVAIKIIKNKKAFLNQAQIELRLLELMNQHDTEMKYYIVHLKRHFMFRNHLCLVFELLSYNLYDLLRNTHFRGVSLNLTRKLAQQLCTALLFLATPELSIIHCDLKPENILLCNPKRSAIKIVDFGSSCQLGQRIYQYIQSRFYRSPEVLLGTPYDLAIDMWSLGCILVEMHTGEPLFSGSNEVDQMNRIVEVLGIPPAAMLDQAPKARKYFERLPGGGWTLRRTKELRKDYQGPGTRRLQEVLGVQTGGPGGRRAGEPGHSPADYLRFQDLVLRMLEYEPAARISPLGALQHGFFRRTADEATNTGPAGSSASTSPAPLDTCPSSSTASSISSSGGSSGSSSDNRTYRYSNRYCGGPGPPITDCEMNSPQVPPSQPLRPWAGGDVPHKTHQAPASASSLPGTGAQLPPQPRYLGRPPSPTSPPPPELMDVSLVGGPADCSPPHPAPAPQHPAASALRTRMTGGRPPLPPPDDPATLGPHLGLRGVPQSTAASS
# Experimental: as §1
# CSNK1D = target: T9, CSNK1D (Homo sapiens, UniProt P48730); test: as above; conditions: MBZ at 10 μM, lower = stronger hit, read-out: Percent Control at 10 μM
# T9 construct: purchased Discoverx (Kinomescan); host or cells: E. coli BL21-derived host (T7 phage) or HEK-293
# Experimental: as §1
# JNK1 = target: T10, JNK1 (Homo sapiens, UniProt P45983); test: as above; conditions: MBZ at 10 μM, lower = stronger hit, read-out: Percent Control at 10 μM
# T10 construct: purchased Discoverx (Kinomescan); host or cells: E. coli BL21-derived host (T7 phage) or HEK-293
# Experimental: as §1
# [2] = target: T11, ABL1(T315I)-phosphorylated (Homo sapiens, UniProt P00519, T315I); test: as above; conditions: MBZ at 10 μM, lower = stronger hit, read-out: Percent Control at 10 μM
# T11 construct: purchased Discoverx (Kinomescan); host or cells: E. coli BL21-derived host (T7 phage) or HEK-293
# Experimental: as §1
# PIK3CG = target: T12, PIK3CG (Homo sapiens, UniProt P48736); test: as above; conditions: MBZ at 10 μM, lower = stronger hit, read-out: Percent Control at 10 μM
# T12 construct: purchased Discoverx (Kinomescan); host or cells: E. coli BL21-derived host (T7 phage) or HEK-293
# Experimental: as §1
# JAK3 = target: T13, JAK3 (Homo sapiens, UniProt P52333); test: as above; conditions: MBZ at 10 μM, lower = stronger hit, read-out: Percent Control at 10 μM
# T13 construct: purchased Discoverx (Kinomescan); host or cells: E. coli BL21-derived host (T7 phage) or HEK-293
# Experimental: as §1
# ULK2 = target: T14, ULK2 (Homo sapiens, UniProt Q8IYT8); test: as above; conditions: MBZ at 10 μM, lower = stronger hit, read-out: Percent Control at 10 μM
# T14 construct: purchased Discoverx (Kinomescan); host or cells: E. coli BL21-derived host (T7 phage) or HEK-293
# Experimental: as §1
# SRC = target: T15, SRC (Homo sapiens, UniProt P12931); test: as above; conditions: MBZ at 10 μM, lower = stronger hit, read-out: Percent Control at 10 μM
# T15 construct: purchased Discoverx (Kinomescan); host or cells: E. coli BL21-derived host (T7 phage) or HEK-293
# Experimental: as §1
# DYRK1A = target: T16, DYRK1A (Homo sapiens, UniProt Q13627); test: as above; conditions: MBZ at 10 μM, lower = stronger hit, read-out: Percent Control at 10 μM
# T16 construct: purchased Discoverx (Kinomescan); host or cells: E. coli BL21-derived host (T7 phage) or HEK-293
# Experimental: as §1
# P38-alpha = target: T17, P38-alpha (Homo sapiens, UniProt Q16539); test: as above
# T17 construct: purchased Discoverx (Kinomescan); host or cells: E. coli BL21-derived host (T7 phage) or HEK-293
# T17 sequence (Q16539 whole entry): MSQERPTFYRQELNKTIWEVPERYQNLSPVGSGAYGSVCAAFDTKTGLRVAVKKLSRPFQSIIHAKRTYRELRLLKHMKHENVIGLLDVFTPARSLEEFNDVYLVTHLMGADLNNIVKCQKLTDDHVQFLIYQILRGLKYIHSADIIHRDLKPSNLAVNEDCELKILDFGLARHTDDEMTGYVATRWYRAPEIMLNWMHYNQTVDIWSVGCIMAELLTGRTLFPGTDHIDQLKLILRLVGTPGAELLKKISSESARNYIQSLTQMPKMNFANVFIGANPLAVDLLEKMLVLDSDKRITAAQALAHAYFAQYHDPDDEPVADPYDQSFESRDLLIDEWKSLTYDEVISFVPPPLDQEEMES
# Experimental: as §1
# CDK7 = target: T18, CDK7 (Homo sapiens, UniProt P50613); test: as above
# T18 construct: purchased Discoverx (Kinomescan); host or cells: E. coli BL21-derived host (T7 phage) or HEK-293
# Experimental: as §1
# KIT = target: T19, KIT (Homo sapiens, UniProt P10721); test: as above; conditions: listed as 'KIT (D816V)'
# T19 construct: purchased Discoverx (Kinomescan); host or cells: E. coli BL21-derived host (T7 phage) or HEK-293
# T19 sequence (P10721 26-976): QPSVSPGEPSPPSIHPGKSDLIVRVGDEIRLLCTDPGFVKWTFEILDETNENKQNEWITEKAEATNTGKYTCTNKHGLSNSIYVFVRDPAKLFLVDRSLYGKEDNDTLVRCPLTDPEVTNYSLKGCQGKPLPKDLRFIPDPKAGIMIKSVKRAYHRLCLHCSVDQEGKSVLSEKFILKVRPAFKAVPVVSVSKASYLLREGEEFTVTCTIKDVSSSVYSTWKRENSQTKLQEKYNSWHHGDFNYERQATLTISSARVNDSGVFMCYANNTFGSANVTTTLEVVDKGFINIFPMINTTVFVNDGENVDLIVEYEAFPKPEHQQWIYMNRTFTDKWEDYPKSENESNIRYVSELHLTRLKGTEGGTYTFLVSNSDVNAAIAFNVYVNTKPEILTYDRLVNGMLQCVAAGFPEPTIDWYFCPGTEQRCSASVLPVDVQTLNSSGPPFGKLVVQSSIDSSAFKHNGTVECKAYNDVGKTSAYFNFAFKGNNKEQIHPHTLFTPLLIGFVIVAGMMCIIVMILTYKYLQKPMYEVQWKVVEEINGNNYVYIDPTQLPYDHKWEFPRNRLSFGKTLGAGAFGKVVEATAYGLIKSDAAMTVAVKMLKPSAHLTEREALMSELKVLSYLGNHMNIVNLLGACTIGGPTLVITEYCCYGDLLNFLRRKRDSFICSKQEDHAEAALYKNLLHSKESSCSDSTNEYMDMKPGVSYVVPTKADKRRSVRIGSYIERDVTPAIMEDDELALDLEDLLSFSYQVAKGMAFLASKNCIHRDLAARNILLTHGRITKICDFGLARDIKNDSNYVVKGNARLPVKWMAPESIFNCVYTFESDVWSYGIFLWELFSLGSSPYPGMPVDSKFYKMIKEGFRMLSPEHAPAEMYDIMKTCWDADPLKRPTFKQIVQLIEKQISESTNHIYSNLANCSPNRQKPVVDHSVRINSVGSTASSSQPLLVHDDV
# Experimental: as §1
# JNK3 = target: T20, JNK3 (Homo sapiens, UniProt P53779); test: as above
# T20 construct: purchased Discoverx (Kinomescan); host or cells: E. coli BL21-derived host (T7 phage) or HEK-293
# T20 sequence (P53779 whole entry): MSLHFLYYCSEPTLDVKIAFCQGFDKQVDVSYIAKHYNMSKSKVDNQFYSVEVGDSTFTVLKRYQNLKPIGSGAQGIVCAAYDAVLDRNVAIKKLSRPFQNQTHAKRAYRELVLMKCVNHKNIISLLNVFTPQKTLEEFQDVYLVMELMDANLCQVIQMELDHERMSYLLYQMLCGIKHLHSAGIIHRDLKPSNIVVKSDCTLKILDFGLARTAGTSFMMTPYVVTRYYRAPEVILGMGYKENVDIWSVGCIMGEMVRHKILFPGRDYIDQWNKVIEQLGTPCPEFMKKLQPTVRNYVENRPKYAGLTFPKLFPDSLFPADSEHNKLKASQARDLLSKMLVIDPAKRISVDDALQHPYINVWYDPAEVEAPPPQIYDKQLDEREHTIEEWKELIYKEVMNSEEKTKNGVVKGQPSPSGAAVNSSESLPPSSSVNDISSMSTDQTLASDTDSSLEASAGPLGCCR
# Experimental: as §1
# PDGFR-A = target: T21, PDGFR-A (Homo sapiens, UniProt P16234); test: as above
# T21 construct: purchased Discoverx (Kinomescan); host or cells: E. coli BL21-derived host (T7 phage) or HEK-293
# T21 sequence (P16234 24-1089): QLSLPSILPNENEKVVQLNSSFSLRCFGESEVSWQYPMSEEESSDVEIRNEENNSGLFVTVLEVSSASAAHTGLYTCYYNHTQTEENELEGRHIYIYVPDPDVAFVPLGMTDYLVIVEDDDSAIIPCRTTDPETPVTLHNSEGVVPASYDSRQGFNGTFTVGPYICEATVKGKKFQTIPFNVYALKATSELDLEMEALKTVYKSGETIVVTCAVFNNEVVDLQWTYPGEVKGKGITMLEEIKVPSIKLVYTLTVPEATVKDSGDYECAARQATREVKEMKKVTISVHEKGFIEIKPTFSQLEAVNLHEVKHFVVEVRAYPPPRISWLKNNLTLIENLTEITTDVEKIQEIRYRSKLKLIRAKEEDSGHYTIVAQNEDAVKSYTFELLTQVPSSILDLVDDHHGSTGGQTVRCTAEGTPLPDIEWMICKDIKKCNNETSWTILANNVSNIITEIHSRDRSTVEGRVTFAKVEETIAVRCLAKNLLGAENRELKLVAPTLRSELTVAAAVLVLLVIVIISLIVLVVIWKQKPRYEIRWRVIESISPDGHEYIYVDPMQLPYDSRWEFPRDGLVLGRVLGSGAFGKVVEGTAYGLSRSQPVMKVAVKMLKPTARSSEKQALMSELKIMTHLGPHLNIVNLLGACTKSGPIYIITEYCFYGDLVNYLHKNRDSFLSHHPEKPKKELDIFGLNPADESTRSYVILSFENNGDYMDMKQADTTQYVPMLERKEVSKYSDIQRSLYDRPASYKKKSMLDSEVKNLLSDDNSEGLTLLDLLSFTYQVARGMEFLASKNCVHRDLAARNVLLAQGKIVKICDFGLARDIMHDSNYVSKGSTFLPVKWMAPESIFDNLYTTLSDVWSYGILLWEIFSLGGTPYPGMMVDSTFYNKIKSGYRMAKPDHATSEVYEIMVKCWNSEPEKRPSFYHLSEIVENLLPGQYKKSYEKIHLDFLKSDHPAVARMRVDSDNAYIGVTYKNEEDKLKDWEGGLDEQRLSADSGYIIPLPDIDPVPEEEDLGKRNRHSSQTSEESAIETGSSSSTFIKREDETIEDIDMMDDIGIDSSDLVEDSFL
# Experimental: as §1
# KIT (D816V) = target: T22, KIT (D816V) (Homo sapiens, UniProt P10721, D816V); test: as above; conditions: MBZ at 10 μM; listed as 'KIT (D816V)', value in parentheses; read-out: Percent Control at 10 μM
# T22 construct: purchased Discoverx (Kinomescan); host or cells: E. coli BL21-derived host (T7 phage) or HEK-293
# T22 sequence (P10721 26-976 D816V): as the sequence (P10721 26-976) above, with D791V counted along it
# Experimental: as §1
# hookworm tubulin = conditions: background statement; cited from earlier work
# VEGFR-2 = target: T23, VEGFR-2 (Homo sapiens, UniProt P35968); test: Kinomescan active site-directed competition binding assay
# T23 construct: purchased Discoverx (Kinomescan); host or cells: E. coli BL21-derived host (T7 phage) or HEK-293
# Experimental: Kinase-tagged T7 phage strains were grown in parallel in 24-well blocks in an E. coli host derived from the BL21 strain. […] The remaining kinases were produced in HEK-293 cells and subsequently tagged with DNA for qPCR detection. […] The liganded beads were blocked with excess biotin and washed with blocking buffer (SeaBlock (Pierce), 1% BSA, 0.05% Tween 20, 1 mM DTT) to remove unbound ligand and to reduce non-specific phage binding. […] All reactions were performed in polypropylene 384-well plates in a final volume of 0.04 ml. […] The kinase concentration in the eluates was measured by qPCR.
# An 11-point 3-fold serial dilution of each test compound was prepared in 100% DMSO at 100× final test concentration and subsequently diluted to 1× in the assay (final DMSO concentration=1%).
# [3] = 11-point dose response, read-out: Binding Affinity (Kd)
# [4] = MBZ at 10 μM, lower = stronger hit, read-out: Percent Control at 10 μM
compound,measurement,setting,value
"COC(=O)Nc1nc2ccc(C(=O)c3ccccc3)cc2[nH]1 [MBZ, mebendazole]",potency on mammalian tubulin relative to hookworm tubulin (fold less),mammalian tubulin,1000 ×
same,remaining binding at 10 µM,GSK3B,35%
same,Kd,JNK2; [3],1090 nM
same,remaining binding at 10 µM,JNK2; [4],9.6%
same,Kd,ABL1-phosphorylated; [3],120 nM
same,remaining binding at 10 µM,ABL1-phosphorylated; [4],0.9%
same,remaining binding at 10 µM,[1],2.2%
same,remaining binding at 10 µM,ABL1-nonphosphorylated,2%
same,Kd,PDGFR-B; [3],660 nM
same,remaining binding at 10 µM,PDGFR-B; [4],3.2%
same,remaining binding at 10 µM,MET,32%
same,Kd,DYRK1B; [3],340 nM
same,remaining binding at 10 µM,DYRK1B; [4],5.6%
same,remaining binding at 10 µM,CSNK1D,36%
same,remaining binding at 10 µM,JNK1,14%
same,remaining binding at 10 µM,[2],3.2%
same,remaining binding at 10 µM,PIK3CG,18%
same,remaining binding at 10 µM,JAK3,29%
same,remaining binding at 10 µM,ULK2,30%
same,remaining binding at 10 µM,SRC,34%
same,remaining binding at 10 µM,DYRK1A,34%
same,Kd,P38-alpha; [3],1660 nM
same,remaining binding at 10 µM,P38-alpha; [4],17%
same,Kd,CDK7; [3],390 nM
same,remaining binding at 10 µM,CDK7; [4],11%
same,remaining binding at 10 µM,"KIT; MBZ at 10 μM, value outside parentheses, read-out: Percent Control at 10 μM",7.4%
same,Kd,KIT; [3],750 nM
same,Kd,JNK3; [3],410 nM
same,remaining binding at 10 µM,JNK3; [4],3%
same,Kd,PDGFR-A; [3],820 nM
same,remaining binding at 10 µM,PDGFR-A; [4],7.8%
same,remaining binding at 10 µM,KIT (D816V),33%
same,inhibition of hookworm tubulin,hookworm tubulin,potent nanomolar inhibition
same,Kd,VEGFR-2; [3],3600 nM
same,remaining binding at 10 µM,VEGFR-2; [4],30%
